Experimental data published in patent US9873904B2, “Detection of acid-producing bacteria” (3M INNOVATIVE PROPERTIES COMPANY, priority 2009, dated 2018).
Where a name gives a salt, the structure may show the parent alone. Read-outs that look alike come from different tables or passages of the source.

Tests used:
Lactobacillus brevis [1] = assay: Colony growth with cycloheximide on Plate I; format: cell-based; settings: with cycloheximide 100 ppm, 28° C., 48 hr, 99.9% carbon dioxide
Method: (§1) Overnight cultures of Lactobacillus brevis in MRS broth and Saccharomyces cerevisiae in yeast peptone dextrose (YPD) broth were prepared as described in Example 7. The cultures were serially diluted to obtain suspensions, each containing approximately 100 cfu/ml of the individual species (either L. brevis or S. cerevisiae). A third suspension was prepared containing 100 cfu/mL total of both species. A second set of 3 suspensions was prepared in the same manner (only L. brevis, only S. cerevisiae, and both organisms) except that each final solution also contained 100 ppm (10 mg/mL) cycloheximide ((CAS No. 66-81-9), sold under the tradename Actidione and obtained from Sigma (Fluka). The cycloheximide was added by using a stock solution of cycloheximide prepared by dissolving 100 ppm of cycloheximide to Butterfield's Buffer and sterile filtering the solution through a 0.2 μm filter. The stock solution was added to the diluent buffer.
(§2) One milliliter of each of the bacterial suspensions was used to inoculate Plate I. The plates were incubated at 28° C. for 48 hr in an incubator having an environment of 99.9% carbon dioxide. Growth indicates the presence of colonies.

Saccharomyces cerevisiae [2] = assay: Colony growth with cycloheximide on Plate I; format: cell-based
Method: as §1, with “A second set of 3 suspensions was prepared in the same manner (only L. brevis, only S. cerevisiae, and both organisms) except that each final solution also contained 100 ppm (10 mg/mL) cycloheximide ((CAS No. 66-81-9), sold under the tradename Actidione and obtained from Sigma (Fluka).” left out
as §2

[3] = system: Lactobacillus brevis and Saccharomyces; assay: Colony growth with cycloheximide on Plate I; format: cell-based, Lactobacillus brevis and Saccharomyces cerevisiae
Method: as §1, with “A second set of 3 suspensions was prepared in the same manner (only L. brevis, only S. cerevisiae, and both organisms) except that each final solution also contained 100 ppm (10 mg/mL) cycloheximide ((CAS No. 66-81-9), sold under the tradename Actidione and obtained from Sigma (Fluka).” left out
as §2

[4] = system: L. lactis subspecies lactis; format: cell-based, Lactococcus lactis subspecies lactis; settings: 30 C
Text: (§3) DIFCO MRS broth was obtained from BD-Diagnostic Systems (Sparks, Md.).
(§4) Four strains of lactic acid-producing bacteria were isolated from processed meats. Two of the cultures were identified as Leuconostoc mesenteroides and Weissella viridescens, Lactococcus lactis subspecies lactis and Streptococcus oralis.
(§5) Bromcresol purple (BCP) pH indicators was obtained from Eastman Kodak (Rochester, N.Y.). Chlorophenol red (CPR) (CAS NO. 4430-20-0) was obtained from Sigma-Aldrich (St. Louis, Mo.). The pH indicators were individually added to MRS broth to obtainfinal concentrations of BCP or CPR of 0.5 mM. After dissolving the pH indicator, the solutions were filter-sterilized.
(§6) Bacterial cultures were prepared by inoculating pure cultures into tryptic soy broth or MRS broth. The inoculated broth was incubated overnight at 25° C. The overnight cultures were diluted in the MRS broth (containing bromcresol purple) to obtain a suspension of approximately 10-100 colony-forming units (CFU) per milliliter. […] Inoculated plates were incubated at temperatures at 25°, 30° and 32° C., respectively. The plates were visually inspected for signs of bacterial growth.
(§7) A concentrated solution of sterile chlorophenol red was added to the MRS diluent as described in Example 2. A concentrated solution of sterile dipotassium phosphate (pH 7.0+/−0.2) was added to the MRS diluent to provide an additional 28 mM phosphate buffer in the diluent. Lactic acid bacterial cultures were prepared and diluted into the MRS/chlorophenol red solution as described in Example 1 with the exception that S. oralis was not tested in this experiment. […] The plates were incubated at 30° C. and the plates were visually inspected for signs of bacterial growth.
as §7, with “provide and” for “provide an”

S. oralis = format: cell-based, Streptococcus oralis; settings: Example 1; indicator 0.02 g/l or 0.04 g/l; buffer addition None; 25 C, 30 C; 40-72 hr
Text: as §3, §4, §5, §6
A concentrated solution of sterile chlorophenol red was added to the MRS diluent as described in Example 2. […]

Leuconostoc = format: cell-based, Leuconostoc mesenteroides; settings: 30 C
Text: as §3, §4, §5, §6, §7
as §7, with “provide and” for “provide an”

Weissella = format: cell-based, Weissella viridescens; settings: 30 C
Text: as §3, §4, §5, §6, §7
as §7, with “provide and” for “provide an”

[5] = system: L. lactis subspecies lactis; assay: Colony appearance on thin film culture devices containing pH indicators (MRS/Letheen diluent); format: cell-based, Lactococcus lactis subspecies lactis; settings: indicator 0.5 mM
Text: (§8) The aliquot were separately filter-sterilized.

L. mesenteroides = assay: as above; format: cell-based, Leuconostoc mesenteroides; settings: indicator 0.5 mM
Text: as §8

Lactobacillus brevis [6] = assay: Detection of lactic acid bacteria with Nystatin on Plate I; format: cell-based; settings: 500 U/mL Nystatin, 28 degrees Celsius, 48-144 hr, 99.9% CO2
Method: (§9) Overnight cultures of Lactobacillus brevis, Pediococcus damnosus and 5 strains of Saccharomyces cerevisiae were grown in MRS broth (bacteria cultures) or yeast peptone dextrose (YPD) broth (yeast cultures). These cultures were serially diluted, yielding suspensions that contained approximately 100 cfu/mL of the organisms. A second series of suspensions were prepared and 500 U/mL Nystatin (CAS No. 1400-61-9 from Sigma) were added to the suspensions. A stock solution was prepared by adding Nystatin solids to 100% ethanol to make a solution of 25,000 U/mL which was then added to the bacteria/yeast suspensions to obtain the desired Nystatin concentration. One milliliter of each of the different solutions was then inoculated onto Plate I. The inoculated plates were incubated at 28 degrees Celsius for 48-144 hr in a 99.9% CO2 incubator.

Pediococcus damnosus = assay: as above; format: cell-based; settings: 500 U/mL Nystatin, 28 degrees Celsius, 48-144 hr, 99.9% CO2
Method: as §9

Saccharomyces cerevisiae [7] = assay: as above; format: cell-based; settings: 500 U/mL Nystatin, 28 degrees Celsius, 48-144 hr, 99.9% CO2
Method: as §9

[8] = with cycloheximide 100 ppm, 28° C., 48 hr, 99.9% carbon dioxide
[9] = Example 1, indicator 0.02 g/l or 0.04 g/l, buffer addition None, 25 C, 18-24 hr
[10] = Example 1, indicator 0.02 g/l or 0.04 g/l, buffer addition None, 25 C, 40-72 hr
[11] = Example 2, indicator 0.21 g/l, buffer addition None, 18-24 hr
[12] = Example 2, indicator 0.21 g/l, buffer addition None, 40-72 hr
[13] = Example 3, indicator 0.21 g/l, buffer addition 28 mM, 18-24 hr
[14] = Example 3, indicator 0.21 g/l, buffer addition 28 mM, 40-72 hr

C[C@@H]1C[C@@H]([C@H](O)CC2CC(=O)NC(=O)C2)C(=O)[C@@H](C)C1 [cycloheximide]
Observation (colony growth) (Lactobacillus brevis [1]): Growth - 1 distinct colony morphology
growth (Saccharomyces cerevisiae [2]; cycloheximide 5, 10, 40 and 100 ppm, only S. cerevisiae): no growth
Observation (colony growth) (Saccharomyces cerevisiae [2]; [8]): No growth
colony morphology ([3]; cycloheximide 5, 10, 40 and 100 ppm): one distinct colony morphology
Observation (colony growth) [3, 8]: Growth - 1 distinct colony morphology

Cc1cc(C2(c3cc(C)c(O)c(Br)c3)OS(=O)(=O)c3ccccc32)cc(Br)c1O [Bromcresol Purple, Bromcresol purple]
Observations [4, 9]: L. lactis subspecies lactis: Colonies with acid zones. No gas bubbles.
Observations [4, 10]: L. lactis subspecies lactis: Colonies with acid zones. No gas bubbles.
Observations (S. oralis): S. oralis: Acid zones. No visible colonies or gas bubbles.
Observations (Leuconostoc; [10]): Leuconostoc: Acid zones. No visible colonies or gas bubbles.
Observations (Weissella; [9]): Weissella: Acid zones without visible colonies. No gas bubbles.
Observations (Weissella; [10]): Weissella: Acid zones and gas bubbles. Pale colonies.

Cc1c(C2(c3cc(Br)c(O)c(Br)c3C)OS(=O)(=O)c3ccccc32)cc(Br)c(O)c1Br [Bromocresol Green, Bromocresol Green sodium salt]
24-hour Results ([5]; 32° C.): Pale yellow zones
24-hour Results (L. mesenteroides; 25° C.): Colonies, yellow zones
24-hour Results (L. mesenteroides; 32° C.): Colonies, yellow zones

O=S1(=O)OC(c2ccc(O)c(Cl)c2)(c2ccc(O)c(Cl)c2)c2ccccc21 [Chlorophenol Red, Chlorophenol red]
Observations [4, 11]: Acid zones were visible for all three microorganisms tested.
Observations [4, 12]: L. lactis subspecies lactis: Colonies with acid zones and gas bubbles.
Observations [4, 13]: Acid zones visible with all three strains.
Observations [4, 14]: L. lactis subspecies lactis: Colonies with acid zones and gas bubbles.
Observations (Leuconostoc; [11]): Acid zones were visible for all three microorganisms tested.
Observations (Leuconostoc; [12]): Leuconostoc: Acid zones and gas bubbles. No visible colonies.
Observations (Leuconostoc; [13]): Acid zones visible with all three strains.
Observations (Leuconostoc; [14]): Leuconostoc: Acid zones. No visible colonies.
Observations (Weissella; [11]): Acid zones were visible for all three microorganisms tested.
Observations (Weissella; [12]): Weissella: Colonies with acid zones and gas bubbles.
Observations (Weissella; [13]): Acid zones visible with all three strains.
Observations (Weissella; [14]): Weissella: Colonies with acid zones and gas bubbles.
24-hour Results ([5]; 32° C.): Colonies; yellow zones
48-hour Results ([5]; 32° C.): Colonies; yellow zones
24-hour Results (L. mesenteroides; 32° C.): Yellow zones
48-hour Results (L. mesenteroides; 32° C.): Yellow zones, gas

C[C@@H]1[C@H](O)[C@@H](C)/C=C/C=C/CC/C=C/C=C/C=C/C=C/C(O[C@H]2O[C@H](C)[C@@H](O)[C@H](N)[C@@H]2O)CC2O[C@](O)(CC(O)C(O)CCC(O)CC(O)CC(O)CC(=O)O[C@H]1C)CC(O)C2C(=O)O (stereo partly drawn) [Nystatin]
colony growth (Lactobacillus brevis [6]): grew whether Nystatin was present or not
colony growth (Pediococcus damnosus): grew whether Nystatin was present or not
colony growth (Saccharomyces cerevisiae [7]): grew only on the plates that did not contain Nystatin

O=C1C(Br)=CC(=C(c2cc(Br)c(O)c(Br)c2)c2ccccc2S(=O)(=O)[O-])C=C1Br.[Na+] [Bromphenol Blue, Bromphenol Blue sodium salt]
48-hour Results ([5]; 25° C.): Pale colonies
72-hour Results ([5]; 25° C.): Colonies, gas
48-hour Results ([5]; 32° C.): pale colonies
72-hour Results ([5]; 32° C.): Colonies, gas
48-hour Results (L. mesenteroides; 32° C.): Pale colonies, gas bubbles
72-hour Results (L. mesenteroides; 32° C.): Pale colonies, gas bubbles
